In publication PMC5980995, “An allostatic mechanism for M2 pyruvate kinase as an amino-acid sensor” (Biochemical Journal, 2018):

Tests used:
M2PYK [1] = molecular target: T1, M2PYK (Homo sapiens, UniProt P14618); assay: Enzyme kinetics of M2PYK for PEP with saturating ADP in presence of amino acids; assay type: biochemical; details: kinetic curves at different inhibitor concentrations
T1 construct: and N-terminal domain (blue, residues 13–43. Residues 1–12, as well as additional residues from the His6-tagged construct); made in house; host or cells: Escherichia coli BL21(DE3), pET28a
Method: (§1) For the determination of kinetics of M2PYK in the absence/presence of amino acid modulators, enzymatic activity assays were performed as follows. A 5 µl aliquot of 0.002 mg/ml M2PYK in PBS-CM was incubated with different concentrations of amino acids in PBS-CM supplemented with 1 mM dithiothreitol at 37°C at pH 7.4 for 10 min. Then, the same volume of assay buffer [PBS-CM supplemented with 10 mM MgCl2, 100 mM KCl, 1 mM NADH, 40 µmol/min ml LDH, as well as saturating ADP (4 mM) and titrated substrate PEP (0.15–10 mM)] was added. […] For these uncompetitive inhibitors the Ki values were calculated to be equal to IC50/2.
Values of the kinetic parameters (Vmax, K0.5(PEP), and nH) were determined by fitting the equation below to the data. V=Vmax×[PEP]^nH/K0.5nH+[PEP]^nH The Lineweaver–Burk plots were fit using the equation below: Y=K0.5nH+(1/x)^nH/Vmax×(1/x)^nH The Berkley Madonna software (http://www.berkeleymadonna.com/) was used to model approximate proportions of monomer and tetramer M2PYK at given total protein concentrations. The calculation was based on a simplified tetramer [T] monomer [M] equilibrium: [T]⇌[M]+[M]+[M]+[M]withKd=[M]^4/[T] […] The association rate constant was scaled to give a Kd of 0.9 µM, which was estimated from analytical gel chromatography results.
The kinetic curves are shown in Figure 4 and Supplementary Figure S4.

M2PYK [2] = molecular target: T1, M2PYK; assay: ELISA with anti-M2PYK antibody binding the C–C interface (monomer–tetramer equilibrium); details: 10 mM amino acid; 0.0039–2.5 µg/ml M2PYK; 1 h, pH 7.4, room temperature
From the text: For the production of specific antibodies, a peptide immunogen (Supplementary Figure S1) specific for M2PYK was covalently conjugated with the carrier protein BSA, and injected into Balb/c female mice (6–7 weeks) at 2-week intervals. A mouse showing best selectivity for M2PYK was chosen as a spleen donor. After the production of a hybridoma, a cell line secreting a specific monoclonal antibody was screened and expanded. The specific monoclonal antibody against M2PYK was identified, purified and conjugated with horseradish peroxidase (HRP) for further ELISAs.
A stock solution of anti-His-tag antibody in carbonate buffer (pH 9.6) was coated onto wells at 50 µl/well at 4°C overnight. The wells were then blocked with 100 µl/well of PBS/Tween 20/3% BSA for 1 h at room temperature. Titrated M2PYK (2.5–0.0039 µg/ml) was incubated with or without ligands (10 mM for all amino acids and 1 mM for FBP) in PBS/Tween 20/3% BSA at room temperature for 1 h. Then, 100 µl of the solution was added to each prepared well for an incubation of 1 h. Afterwards, a 100 µl aliquot of PBS/Tween 20/3% BSA containing 4 µg/ml HRP-conjugated M2PYK antibody was added to each well and incubated for 1 h at room temperature. Electrochemiluminescence solution was added at 50 µl/well to develop the luminescence, which was read immediately with a plate reader. Three washes with PBS/Tween 20/3% BSA were performed between each step.
To investigate the effect of ligand binding on monomer–tetramer equilibrium at lower protein concentrations, we developed an ELISA assay. […] As the epitope is hidden in the tetrameric form of M2PYK, antibody binding on the C–C interface of M2PYK reflects the amount of monomer/dimer but not tetramer. The ELISA tests were performed using low concentrations of His6-M1/2PYK (0.0039–2.5 µg/ml) incubated with no ligand or 10 mM of each amino acid for 1 h in PBS-CM at pH 7.4 at room temperature. The incubated solutions were added to 96-well plates precoated with anti-His-tag antibodies. HRP-conjugated M2PYK antibodies were then incubated, followed by luminescence reading.

M2PYK [3] = molecular target: T1, M2PYK; assay: X-ray co-crystal structures of M2PYK with amino acids; details: wild-type M2PYK co-crystallised with the amino acid
Method: Single crystals of M2PYK were obtained at 17°C by vapour diffusion using the hanging-drop technique. The drops were formed by mixing 1.5 µl of wild-type M2PYK (20 mg/ml) solution containing ligands with 1.5 µl of reservoir solution (composed of 11–16% PEG 3350, 100 mM sodium cacodylate, 50 mM MgCl2, and 100 mM KCl). […] The pH for obtaining optimal crystals was 7.2–7.8. Before data collection, crystals were dipped in a freezing solution consisting of reservoir solution supplemented with the same concentration of ligands as in the original solution, as well as up to 35% PEG 3350, which eliminated the appearance of ice rings. Diffraction data were collected at the Diamond synchrotron radiation facility in Oxfordshire, U.K. on beamline I03 (for the M2PYK/Ala structure), I04-1 (for the M2PYK/Phe and the M2PYK/Trp structures), and I24 (for the M2PYK/Ser structure). All datasets were obtained from a single crystal flash-frozen in liquid nitrogen. A more detailed description and discussion of the crystallisation trials is in the Supplementary Material.
All four M2PYK structures were solved by molecular replacement using the program PHASER [40]. A monomer (Chain A) from the previously determined tetrameric structure of M2PYK (in R-state, PDB ID: 4B2D) served as the search model for the M2PYK/Ser structure. Chain A of a different M2PYK structure (in T-state, PDB ID: 4FXJ) was used as the search model for the M2PYK/Phe, M2PYK/Ala, and M2PYK/Trp structures. There were clear molecular replacement solutions for all structures. The resulting models were then subjected to 10 cycles of rigid body refinement using the program REFMAC [41]. Afterwards, manual changes were made to models to adjust side chain conformations and to add additional residues to the N terminus using COOT [42]. The models were then subjected to several rounds of translation libration screw refinement and restrained refinement, and ligand molecules were added where clear unbiased Fo–Fc electron density was observed. Water molecules were added to the model using COOT, and after several rounds of restrained refinement, R/Rfree values converged.

M2PYK [4] = molecular target: T1, M2PYK; assay: Analytical gel chromatography of M2PYK oligomerisation/dissociation; details: 10 mM amino acid; 0.1 mg/ml M2PYK; PBS-CM pH 7.4, room temperature, 12 h
Method: Analytical gel chromatography was performed to characterise the oligomerisation/dissociation of M2PYK in the presence/absence of different amino acids. Aliquots of 400 µl of 0.1 mg/ml purified M2PYK were incubated with or without 10 mM amino acids in PBS-CM at room temperature at pH 7.4 overnight. After the incubation, samples were loaded independently onto a Superdex 200 PC 3.2/30 gel-filtration column. Samples of 25 µl were injected, and the column flow rate was maintained at 0.1 ml/min. Protein peaks were monitored using the absorbance at both 280 and 214 nm. The retention volumes for the M2PYK peaks were the same as those identified by SEC-MALS as monomer and tetramer peaks (using the same Superdex 200 column) in our previous study.
Analytical gel chromatography was used to investigate the effects of amino acids on the oligomerisation of M2PYK. […] Dissociation studies of M2PYK using SEC-MALS [13] and ultracentrifugation show the predominant forms in solution are tetramer and monomer.

M2PYK [5] = molecular target: T1, M2PYK; assay: M2PYK activity at sub-saturating PEP and ADP: amino-acid IC50/Ki and serine versus alanine/phenylalanine competition; assay type: biochemical; details: for Ki: calculated as IC50/2 (uncompetitive inhibitors), read-out: inhibitor constant (Ki) against M2PYK; for IC50: sub-saturating PEP and ADP, 0 µM serine, read-out: IC50 against M2PYK
Method: as §1, with “min.” for “min. Then, the same volume of assay buffer [PBS-CM supplemented with 10 mM MgCl2, 100 mM KCl, 1 mM NADH, 40 µmol/min ml LDH, as well as saturating ADP (4 mM) and titrated substrate PEP (0.15–10 mM)] was added.”
The decrease in absorbance at 340 nm was measured for 5 min at 37°C using a plate reader. […]

M1PYK [6] = molecular target: T2, M1PYK (Homo sapiens, UniProt P14618); assay: PYK activity modulator screen (LDH-coupled enzymatic activity assay); assay type: biochemical; details: 2.5 mM ligand, sub-saturating PEP and ADP; for inhibition of M1PYK activity: pH 7.4, 37°C, relative to no ligand
T2 construct: made in house; host or cells: Escherichia coli BL21(DE3), pET28a
Method: (§2) For the identification of PYK activity modulators, enzymatic activity assays were performed as follows. A 1.9 µl aliquot of 20 mg/ml M1 or M2PYK in PBS-CM was added individually into […] of different amino acids at 5 mM in PBS-CM at pH 7.4 followed by an incubation at 37°C for 10 min. Then, the same volume of assay buffer [PBS-CM supplemented with 10 mM MgCl2, 100 mM KCl, 1 mM NADH, 40 µmol/min ml lactate dehydrogenase (LDH), as well as sub-saturating substrates PEP (1 mM) and ADP (0.8 mM)] was added into the protein solution and mixed (so the concentrations of all reagents were halved). The decrease in absorbance at 340 nm (the absorbance of NADH) was measured for 5 min at 37°C using a plate reader. PEP, ADP, LDH, NADH, FBP and all amino acids were from Sigma–Aldrich.
(§3) FBP was used as a positive control. The reaction was performed after pre-incubation in the presence of sub-saturating substrates in PBS at pH 7.4 at 37°C as described in Experimental Procedures.

M2PYK [7] = molecular target: T1, M2PYK; assay: as above; assay type: biochemical; details: 2.5 mM ligand, sub-saturating PEP and ADP; for activation of M2PYK activity: pH 7.4, 37°C, relative to no ligand
Method: as §2, §3

M1PYK [8] = tested on: M1PYK; set-up: method as in PMID 5166752, PMID 16634623; details: cited from earlier work
cell proliferation = tested on: cell proliferation; set-up: method as in PMID 23530218; details: via activation or inhibition of M2PYK; cited from earlier work
M2PYK [9] = tested on: M2PYK; set-up: method as in Chaneton et al. 2012; details: 4 nM M2PYK; ref Chaneton et al. 2012; cited from earlier work
M2PYK [10] = molecular target: T1, M2PYK; set-up: method as in PMID 23530218; details: previously shown; cited from earlier work

T2 sequence (P14618 1-531 isoform P14618-2): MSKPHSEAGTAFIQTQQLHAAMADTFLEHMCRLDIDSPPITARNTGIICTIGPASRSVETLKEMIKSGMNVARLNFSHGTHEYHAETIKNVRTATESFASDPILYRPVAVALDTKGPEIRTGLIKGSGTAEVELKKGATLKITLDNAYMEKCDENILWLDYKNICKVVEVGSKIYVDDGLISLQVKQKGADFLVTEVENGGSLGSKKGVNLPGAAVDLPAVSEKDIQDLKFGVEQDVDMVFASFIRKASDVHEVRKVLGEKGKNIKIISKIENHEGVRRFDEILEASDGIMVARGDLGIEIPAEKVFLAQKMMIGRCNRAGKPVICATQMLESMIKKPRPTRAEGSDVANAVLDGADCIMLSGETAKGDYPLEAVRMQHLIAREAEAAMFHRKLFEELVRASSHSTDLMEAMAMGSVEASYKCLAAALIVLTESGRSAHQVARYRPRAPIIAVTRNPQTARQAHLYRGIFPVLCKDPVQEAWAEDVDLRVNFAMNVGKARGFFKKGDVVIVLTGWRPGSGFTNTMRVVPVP
T1 sequence (P14618 whole entry, the tested form may be a part): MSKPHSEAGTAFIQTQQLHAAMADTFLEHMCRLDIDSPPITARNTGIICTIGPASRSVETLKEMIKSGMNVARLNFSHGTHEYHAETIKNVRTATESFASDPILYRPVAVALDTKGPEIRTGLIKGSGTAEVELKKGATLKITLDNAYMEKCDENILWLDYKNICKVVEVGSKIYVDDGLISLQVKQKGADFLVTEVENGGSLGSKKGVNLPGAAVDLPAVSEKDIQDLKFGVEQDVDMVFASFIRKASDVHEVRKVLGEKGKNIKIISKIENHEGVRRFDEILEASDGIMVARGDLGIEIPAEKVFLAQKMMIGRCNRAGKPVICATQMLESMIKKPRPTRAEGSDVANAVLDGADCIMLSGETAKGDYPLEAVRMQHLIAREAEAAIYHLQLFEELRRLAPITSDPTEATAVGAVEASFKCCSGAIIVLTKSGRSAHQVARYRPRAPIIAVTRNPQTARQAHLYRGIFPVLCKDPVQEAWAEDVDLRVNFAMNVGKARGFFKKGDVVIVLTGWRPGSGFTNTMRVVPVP

mode of inhibition of M2PYK (M2PYK [1])	oligomeric state of M2PYK at low protein concentration (M2PYK [2])	Conformation of M2PYK tetramer in co-crystal structure (M2PYK [3])	effect on M2PYK oligomerisation (tetramer versus monomer) (M2PYK [4])	Ki (M2PYK [5])	IC50 (M2PYK [5])	inhibition of M1PYK activity (M1PYK [6])	activation of M2PYK activity (M2PYK [7])	Compound	other results
allosteric uncompetitive inhibitors	predominantly tetrameric	T-state	stabilised tetramers over monomers	62 µM	124 µM			C[C@H](N)C(=O)O [alanine, L-alanine]	M2PYK activity (M2PYK [5]; alanine 200–300 µM in the presence of serine ∼0.6 mM): ~65%; M2PYK activity (M2PYK [5]; alanine 200–300 µM, no serine): ~10%
						10%		NCC(=O)O [glycine]	
							~30%	N[C@@H](Cc1c[nH]cn1)C(=O)O [histidine]	M2PYK activity normalised to activity in absence of ligands (100%) (M2PYK [7]): higher than 120%
						10%		NCCCC[C@H](N)C(=O)O [lysine]	
allosteric uncompetitive inhibitors	predominantly tetrameric	T-state	stabilised tetramers over monomers	205 µM	410 µM	10%		N[C@@H](Cc1ccccc1)C(=O)O [phenylalanine, L-phenylalanine]	M2PYK activity (M2PYK [5]; phenylalanine at ∼0.2 mM, no serine): ~65%; M2PYK activity (M2PYK [5]; phenylalanine ∼0.2 mM in the presence of 0.6 mM serine): nearly full activity; regulatory effect on M1PYK enzymatic activity (M1PYK [8]): non-competitive inhibition; effect on cell proliferation (cell proliferation): favours cell proliferation
	predominantly tetrameric	R-state	stabilised tetramers over monomers				~30%	N[C@@H](CO)C(=O)O [serine, L-serine]	M2PYK activity normalised to activity in absence of ligands (100%) (M2PYK [7]): higher than 120%; effect on M2PYK activity in end-point assay (M2PYK [9]): showed activation
allosteric uncompetitive inhibitors	predominantly tetrameric	T-state	stabilised tetramers over monomers	222 µM	445 µM			N[C@@H](Cc1c[nH]c2ccccc12)C(=O)O [tryptophan, L-tryptophan]	
							~40%	fructose 1,6-bisphosphate [FBP, reference compound]	regulatory effect on M1PYK activity (M1PYK [6]): little or no regulatory effect; effect on M2PYK activity in end-point assay (M2PYK [9]): showed activation; effect on cell proliferation (cell proliferation): inhibits cell proliferation; effect on M2PYK oligomerisation (M2PYK [10]): stabilised the tetrameric form

Compound	mode of inhibition of M2PYK (M2PYK [1])	oligomeric state of M2PYK at low protein concentration (M2PYK [2])	Conformation of M2PYK tetramer in co-crystal structure (M2PYK [3])	effect on M2PYK oligomerisation (tetramer versus monomer) (M2PYK [4])	Ki (M2PYK [5])	IC50 (M2PYK [5])	inhibition of M1PYK activity (M1PYK [6])	activation of M2PYK activity (M2PYK [7])	other results
N=C(N)NCCC[C@H](N)C(=O)O [arginine]							10%		
